Laboratory results from ChEMBL document CHEMBL1151706, “Hetero-Diels-Alder reaction of 1,3-bis(trimethylsilyloxy)-1,3-butadienes with arylsulfonylcyanides. Synthesis and antimicrobial activity of 4-hydroxy-2-(arylsulfonyl)pyridines” (2008).
≈ marks a conversion by molar mass, not a printed value. Calls of active or inactive are those of the source. The calls are words filed in the database; no cut-off is given here.

Experiments:
Type in all cases: functional
[1] = tested on: Bacillus subtilis; assay: Antibacterial activity against Bacillus subtilis ATCC 6051 assessed as diameter of the inhibition zone at 1 uM/disk after 4 hrs by disk diffusion method; settings: for zone of inhibition at 1 µM: ATCC 6051, 4 h, read-out: IZ
[2] = tested on: Candida maltosa; assay: Antifungal activity against Candida maltosa SBUG 700 assessed as diameter of the inhibition zone at 1 uM/disk by disk diffusion method
[3] = tested on: Staphylococcus aureus; assay: Antibacterial activity against Staphylococcus aureus ATCC 6538 assessed as diameter of the inhibition zone at 1 uM/disk after 4 hrs by disk diffusion method; settings: for zone of inhibition at 1 µM: ATCC 6538, 4 h, read-out: IZ
[4] = tested on: Escherichia coli; assay: Antibacterial activity against Escherichia coli ATCC 11229 assessed as diameter of the inhibition zone at 1 uM/disk after 4 hrs by disk diffusion method
[5] = tested on: Staphylococcus aureus; assay: Antibacterial activity against Staphylococcus aureus ATCC 6538 by dilution assay
[6] = tested on: Bacillus subtilis; assay: Antibacterial activity against Bacillus subtilis ATCC 6051 by dilution assay

Compound: COc1cc(O)cc(S(=O)(=O)c2ccccc2)n1
- Activity [1]: inactive
- Activity [2]: inactive
- Activity [3]: inactive
- Activity [4]: inactive

Compound: CCOc1nc(S(=O)(=O)c2ccc(C)cc2)cc(O)c1F
- zone of inhibition at 1 µM [1]: 11 mm
- Activity [2]: inactive
- Activity [3]: inactive
- Activity [4]: inactive

Compound: Cc1ccc(S(=O)(=O)c2cc(O)cc(C)n2)cc1
- Activity [1]: inactive
- Activity [2]: inactive
- Activity [3]: inactive
- Activity [4]: inactive

Compound: CCOc1nc(S(=O)(=O)c2ccccc2)cc(O)c1F
- zone of inhibition at 1 µM [1]: 11 mm
- Activity [2]: inactive
- zone of inhibition at 1 µM [3]: 12 mm
- MIC [5]: 3360 µM (≈ 999 µg/mL)
- Activity [4]: inactive
- MIC [6]: 1680 µM (≈ 499 µg/mL)

Compound: CC(C)Oc1cc(O)cc(S(=O)(=O)c2ccccc2)n1
- Activity [1]: inactive
- Activity [2]: inactive
- Activity [3]: inactive
- Activity [4]: inactive

Compound: Cc1ccc(S(=O)(=O)c2cc(O)c(Sc3ccccc3)c(C)n2)cc1
- zone of inhibition at 1 µM [1]: 10 mm
- Activity [2]: inactive
- Activity [3]: inactive
- MIC [5]: 670 µM (≈ 249 µg/mL)
- Activity [4]: inactive
- MIC [6]: 340 µM (≈ 126 µg/mL)

Compound: CCOc1nc(S(=O)(=O)c2ccc(C)cc2)cc(O)c1Cl
- zone of inhibition at 1 µM [1]: 10 mm
- zone of inhibition at 1 µM ([2]; read-out: IZ): 9 mm
- zone of inhibition at 1 µM [3]: 13 mm
- MIC [5]: 1530 µM (≈ 502 µg/mL)
- Activity [4]: inactive
- MIC [6]: 1520 µM (≈ 498 µg/mL)

Compound: Cc1ccc(S(=O)(=O)c2cc(O)c(Oc3cccc(C)c3)c(C)n2)cc1
- Activity [1]: inactive
- Activity [2]: inactive
- Activity [3]: inactive
- Activity [4]: inactive

Compound: COCc1cc(O)cc(S(=O)(=O)c2ccc(C)cc2)n1
- Activity [1]: inactive
- Activity [2]: inactive
- Activity [3]: inactive
- Activity [4]: inactive

Compound: Cc1ccc(Oc2c(O)cc(S(=O)(=O)c3ccc(C)cc3)nc2C)cc1
- zone of inhibition at 1 µM [1]: 7 mm
- Activity [2]: inactive
- zone of inhibition at 1 µM [3]: 8 mm
- Activity [4]: inactive

Compound: CCOc1cc(O)cc(S(=O)(=O)c2ccccc2)n1
- Activity [1]: inactive
- Activity [2]: inactive
- Activity [3]: inactive
- Activity [4]: inactive

Compound: Cc1cccc(Sc2c(O)cc(S(=O)(=O)c3ccccc3)nc2C)c1
- zone of inhibition at 1 µM [1]: 10 mm
- Activity [2]: inactive
- zone of inhibition at 1 µM [3]: 13 mm
- MIC [5]: 670 µM (≈ 249 µg/mL)
- Activity [4]: inactive
- MIC [6]: 330 µM (≈ 123 µg/mL)

Compound: CCOc1nc(S(=O)(=O)c2ccc(C)cc2)cc(O)c1Oc1cc(C)cc(C)c1
- Activity [1]: inactive
- Activity [2]: inactive
- zone of inhibition at 1 µM [3]: 8 mm
- Activity [4]: inactive

Compound: COCCOc1cc(O)cc(S(=O)(=O)c2ccc(C)cc2)n1
- Activity [1]: inactive
- Activity [2]: inactive
- Activity [3]: inactive
- Activity [4]: inactive

Compound: Cc1nc(S(=O)(=O)c2ccccc2)cc(O)c1Sc1ccccc1
- zone of inhibition at 1 µM [1]: 10 mm
- Activity [2]: inactive
- zone of inhibition at 1 µM [3]: 9 mm
- Activity [4]: inactive

Compound: CCOc1cc(O)cc(S(=O)(=O)c2ccc(C)cc2)n1
- Activity [1]: inactive
- Activity [2]: inactive
- Activity [3]: inactive
- Activity [4]: inactive

Compound: CCc1c(O)cc(S(=O)(=O)c2ccccc2)nc1OC
- Activity [1]: inactive
- Activity [2]: inactive
- Activity [3]: inactive
- Activity [4]: inactive

Compound: Cc1ccc(Sc2c(O)cc(S(=O)(=O)c3ccc(C)cc3)nc2C)cc1
- zone of inhibition at 1 µM [1]: 10 mm
- Activity [2]: inactive
- zone of inhibition at 1 µM [3]: 8 mm
- MIC [5]: 320 µM (≈ 123 µg/mL)
- Activity [4]: inactive
- MIC [6]: 160 µM (≈ 61.7 µg/mL)

Compound: NYSTATIN
- inhibition zone (IZ) [2]: 28 mm

Compound: CCOc1nc(S(=O)(=O)c2ccccc2)cc(O)c1Oc1cc(C)cc(C)c1
- Activity [1]: inactive
- Activity [2]: inactive
- Activity [3]: inactive
- Activity [4]: inactive

Compound: CCOc1nc(S(=O)(=O)c2ccccc2)cc(O)c1Cl
- zone of inhibition at 1 µM [1]: 11 mm
- Activity [2]: inactive
- zone of inhibition at 1 µM [3]: 12 mm
- MIC [5]: 1590 µM (≈ 499 µg/mL)
- Activity [4]: inactive
- MIC [6]: 1590 µM (≈ 499 µg/mL)

Compound: COc1nc(S(=O)(=O)c2ccccc2)cc(O)c1Sc1ccccc1
- zone of inhibition at 1 µM [1]: 10 mm
- Activity [2]: inactive
- Activity [3]: inactive
- Activity [4]: inactive

Compound: CC1(C)S[C@@H]2[C@H](NC(=O)[C@H](N)c3ccccc3)C(=O)N2[C@H]1C(=O)O [AMPICILLIN]
- zone of inhibition at 1 µM [1]: 25 mm
- zone of inhibition at 1 µM [3]: 27 mm
- MIC [5]: 3 µM (≈ 1.05 µg/mL)
- zone of inhibition at 1 µM ([4]; ATCC 11229, 4 h, read-out: IZ): 19 mm
- MIC [6]: 11 µM (≈ 3.84 µg/mL)

Compound: COc1cc(O)cc(S(=O)(=O)c2ccc(C)cc2)n1
- Activity [1]: inactive
- Activity [2]: inactive
- zone of inhibition at 1 µM [3]: 10 mm
- Activity [4]: inactive
